We go through 1 compound from patent US20260114449A1, “CONCENTRATED ANTIMICROBIAL SOLUTIONS CONTAINING SPARINGLY SOLUBLE ANTIMICROBIAL AGENTS” (Virox Technologies Inc., priority 2023, published 2026).

The series is described as follows: Solubility of salicylic acid in concentrated solution. In kind it is physicochemical. The procedure:
Solutions 18-22 consisting of a solvent (Tamisolve NxG), a sparingly soluble antimicrobial agent (salicylic acid), and an antimicrobial surfactant (Biosoft S-101 LS) were prepared and are summarized in Table 3.
Solution 42 was prepared and visually inspected at the time of preparation, after 24 hours of storage at room temperature, and after one cycle of freezing and thawing.

Structures are written as SMILES.

Consider `O=C(O)c1ccccc1O` [salicylic acid, Salicylic acid], for which the “amount of salicylic acid effectively solubilized” value (Solution 42: Tamisolve NxG 35 wt. %, Biosoft S-101 LS 45 wt. %) is given as 20 wt. %. For the same compound, the “maximum amount of salicylic acid that was solubilized” value (Table 3 solutions: Tamisolve NxG 23.54 wt. % plus Biosoft S-101 LS) is reported as 13 wt. %. Besides, for the setting “in Solution 42”, the “solubility of salicylic acid relative to its solubility in water” value is “about 83 times”.
